Test results published in the supplement of paper PMC10307832.

Columns and labels:
Assay in all cases: relative viability (nuclei count vs DMSO), 5 days (fraction); higher = more cells survive
[1] = compound: N=C1NC(=O)/C(=C/c2ccc(O)cc2)S1 [Mirin] + O=C(CCCCCCC(=O)Nc1ccccc1)NO [Vorinostat] (partner 1 µM)
Outline: (§1)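 Lung cancer cell lines, seeded in 1536-well plates, were treated the following day by pin tool with a single drug or with five library-drug doses (not always all listed) in √10 steps on top of a fixed anchor-drug dose. Cells were fixed and nuclei stained in one step after 5 days, and nuclei were counted. Relative viability is the nuclei count for treated wells divided by that for vehicle wells, reported as medians of duplicate plates.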

[2] = compound: N=C1NC(=O)/C(=C/c2ccc(O)cc2)S1 [Mirin] + Cc1nc(NC(=O)N2CCC[C@H]2C(N)=O)sc1-c1ccnc(C(C)(C)C(F)(F)F)c1 [Alpelisib] (partner 2 µM)
Outline: as §1

[3] = compound: N=C1NC(=O)/C(=C/c2ccc(O)cc2)S1 [Mirin] + COc1cccc2cc(-c3nc([C@H]4CC[C@H](C(=O)O)CC4)n4ncnc(N)c34)[nH]c12 [OSI-027] (partner 0.5 µM)
Outline: as §1

[4] = compound: CCC1=CN=CN=C1N2CCN(CC2)CC3=NC4=C(N3)C=C(C=C4)C(F)(F)F + Cc1cc(Nc2cc(N3CCN(C)CC3)nc(Sc3ccc(NC(=O)C4CC4)cc3)n2)n[nH]1 [Tozasertib] (partner 0.1 µM)
Outline: as §1

UMC-11
relative viability ([1]; first compound 0.25 µM): 0.411 | relative viability ([1]; first compound 0.7906 µM): 0.362 | relative viability ([1]; first compound 2.5 µM): 0.399 | relative viability ([1]; first compound 7.906 µM): 0.305 | relative viability ([1]; first compound 25 µM): 0.266 | relative viability ([2]; first compound 0.25 µM): 1.03 | relative viability ([2]; first compound 0.7906 µM): 0.958 | relative viability ([2]; first compound 2.5 µM): 0.96 | relative viability ([2]; first compound 7.906 µM): 0.935 | relative viability ([2]; first compound 25 µM): 0.572 | relative viability ([3]; first compound 0.25 µM): 0.477 | relative viability ([3]; first compound 0.7906 µM): 0.483 | relative viability ([3]; first compound 2.5 µM): 0.461 | relative viability ([3]; first compound 7.906 µM): 0.396 | relative viability ([3]; first compound 25 µM): 0.293 | relative viability ([4]; first compound 0.04 µM): 0.197 | relative viability ([4]; first compound 0.1265 µM): 0.216 | relative viability ([4]; first compound 0.4 µM): 0.216 | relative viability ([4]; first compound 1.265 µM): 0.204 | relative viability ([4]; first compound 4 µM): 0.214
